Measured values: US20090054490A1, “METHODS FOR THE TREATMENT OF GERD WITH MGLUR5 ANTAGONISTS” (priority 2007, published 2009)

Target: T1, human mGlu5a receptor (Homo sapiens, UniProt P41594)
T1 construct: expressed in transfected cells; host or cells: EBNA cells (transient transfection); cell membrane homogenates
Test: [3H]MPEP competition binding on membranes of EBNA cells transfected with human mGlu5a receptor
Conditions: [3H]MPEP 2 nM, 1 h at 4° C., read-out: Ki (mGluR5)
Protocol: For binding experiments, cDNA encoding human mGlu5a receptor was transiently transfected into EBNA cells using a procedure described by Schlaeger and Christensen [Cytotechnology 15:1-13 (1998)]. Cell membrane homogenates were stored at −80° C. until the day of assay where upon they were thawed and resuspended and polytronised in 15 mM Tris-HCl, 120 mM NaCl, 100 mM KCl, 25 mM CaCl2, 25 mM MgCl2 binding buffer at pH 7.4 to a final assay concentration of 20 […].
Saturation isotherms were determined by addition of twelve [^3H]MPEP concentrations (0.04-100 nM) to these membranes (in a total volume of 200 μl) for 1 h at 4° C. […] Incubations were performed for 1 h at 4° C.
At the end of the incubation, membranes were filtered onto unifilter (96-well white microplate with bonded GF/C filter preincubated 1 h in 0.1% PEI in wash buffer, Packard BioScience, Meriden, Conn.) with a Filtermate 96 harvester (Packard BioScience) and washed 3 times with cold 50 mM Tris-HCl, pH 7.4 buffer. Nonspecific binding was measured in the presence of […]. The radioactivity on the filter was counted (3 min) on a Packard Top-count microplate scintillation counter with quenching correction after addition of 45 μl of microscint 40 (Canberra Packard S.A., Zutrich, Switzerland) and shaking for 20 min.
The inhibition (antagonists) curves were fitted with a four parameter logistic equation giving IC50, and Hill coefficient using an iterative non linear curve fitting software (Xcel fit).
The Ki value is defined by the following formula: […]
L is the concentration of radioligand used in the binding experiment and the Kd value of the radioligand is empirically determined for each batch of membranes prepared.

T1 sequence (P41594 21-1180 isoform P41594-2 limits assumed): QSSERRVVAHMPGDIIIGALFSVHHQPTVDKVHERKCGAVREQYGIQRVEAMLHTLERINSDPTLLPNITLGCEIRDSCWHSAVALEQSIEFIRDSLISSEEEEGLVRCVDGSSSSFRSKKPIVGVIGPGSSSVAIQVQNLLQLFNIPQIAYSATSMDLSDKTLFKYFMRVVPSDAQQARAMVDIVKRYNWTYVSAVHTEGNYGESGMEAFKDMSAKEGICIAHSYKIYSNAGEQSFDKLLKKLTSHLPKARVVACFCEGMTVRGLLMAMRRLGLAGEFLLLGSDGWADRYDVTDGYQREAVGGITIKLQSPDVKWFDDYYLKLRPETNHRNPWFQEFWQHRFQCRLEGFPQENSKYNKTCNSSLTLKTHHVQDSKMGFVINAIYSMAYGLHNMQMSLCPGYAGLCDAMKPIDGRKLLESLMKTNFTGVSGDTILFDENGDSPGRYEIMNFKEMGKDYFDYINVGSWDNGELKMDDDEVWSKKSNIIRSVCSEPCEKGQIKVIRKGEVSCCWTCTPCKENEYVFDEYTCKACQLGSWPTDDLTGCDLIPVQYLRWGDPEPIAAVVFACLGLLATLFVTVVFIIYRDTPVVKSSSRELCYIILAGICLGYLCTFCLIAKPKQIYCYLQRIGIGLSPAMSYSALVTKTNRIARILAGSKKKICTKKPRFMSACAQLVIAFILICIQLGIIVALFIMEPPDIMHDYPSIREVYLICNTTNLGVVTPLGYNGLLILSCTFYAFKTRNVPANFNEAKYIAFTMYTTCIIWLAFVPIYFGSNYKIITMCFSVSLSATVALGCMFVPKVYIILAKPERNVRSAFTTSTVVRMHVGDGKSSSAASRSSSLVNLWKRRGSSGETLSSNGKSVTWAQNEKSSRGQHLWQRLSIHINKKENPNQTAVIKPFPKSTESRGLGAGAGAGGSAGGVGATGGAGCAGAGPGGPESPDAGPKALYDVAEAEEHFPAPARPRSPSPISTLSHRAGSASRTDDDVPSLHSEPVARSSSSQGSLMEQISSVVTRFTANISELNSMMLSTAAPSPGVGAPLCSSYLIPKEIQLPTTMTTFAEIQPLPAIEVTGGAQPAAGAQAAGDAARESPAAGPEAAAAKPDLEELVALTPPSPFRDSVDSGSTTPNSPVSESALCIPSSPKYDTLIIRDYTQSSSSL

SMILES	Ki
Cc1nc(C#Cc2ccnc(Cl)c2)c(C)n1-c1cccc(C(F)(F)F)c1 [compound 21, 2-Chloro-4-[2,5-dimethyl-1-(3-trifluoromethyl-phenyl)-1H-imidazol-4-ylethynyl]-pyridine]	55 nM
Cc1ccc(-n2c(C)nc(C#Cc3ccnc(Cl)c3)c2C)cc1 [compound 7, 2-Chloro-4-(2,5-dimethyl-1-p-tolyl-1H-imidazol-4-ylethynyl)-pyridine]	21 nM
Cc1cc(C(F)(F)F)cc(-n2c(C)nc(C#Cc3ccnc(Cl)c3)c2C)n1 [compound 17, 2-[4-(2-Chloro-pyridin-4-ylethynyl)-2,5-dimethyl-imidazol-1-yl]-6-methyl-4-trifluoromethyl-pyridine]	79 nM
Cc1ccc(-n2c(C)nc(C#Cc3ccnc(Cl)c3)c2C)nc1 [compound 15, 2-[4-(2-Chloro-pyridin-4-ylethynyl)-2,5-dimethyl-1H-imidazol-1-yl]-5-methyl-pyridine]	70 nM
Cc1nc(C#Cc2ccnc(Cl)c2)c(C(F)F)n1-c1ccc(F)cc1 [compound 27, 2-Chloro-4-[5-difluoromethyl-1-(4-fluoro-phenyl)-2-methyl-1H-imidazol-4-ylethynyl]-pyridine]	42.2 nM
Cc1ccc(-n2c(C)nc(C#Cc3ccnc(Cl)c3)c2C)cc1Cl [compound 8, 2-Chloro-4-[1-(3-chloro-4-methyl-phenyl)-2,5-dimethyl-1H-imidazol-4-ylethynyl]-pyridine]	10 nM
Cc1nc(C#Cc2ccnc(Cl)c2)c(C)n1-c1cnccn1 [compound 18, 2-[4-(2-Chloro-pyridin-4-ylethynyl)-2,5-dimethyl-imidazol-1-yl]-pyrazine]	108 nM
Cc1cc(F)ccc1-n1c(C)nc(C#Cc2ccnc(Cl)c2)c1C [compound 5, 2-Chloro-4-[1-(4-fluoro-2-methyl-phenyl)-2,5-dimethyl-1H-imidazol-4-ylethynyl]-pyridine]	50 nM
Cc1nc(C#Cc2ccnc(Cl)c2)c(CO)n1-c1ccc(F)cc1 [compound 28, [5-(2-Chloro-pyridin-4-ylethynyl)-3-(4-fluoro-phenyl)-2-methyl-3H-imidazol-4-yl]-methanol]	211 nM
Cc1nc(C#Cc2ccnc(Cl)c2)c(C)n1-c1ccc(Cl)nc1 [compound 16, 2-Chloro-5-[4-(2-Chloro-pyridin-4-ylethynyl)-2,5-dimethyl-1H-imidazol-1-yl]-pyridine]	86 nM
Cc1nc(C#Cc2ccnc(Cl)c2)c(C)n1-c1cccc(OC(F)(F)F)c1 [compound 12, 2-Chloro-4-[2,5-dimethyl-1-(3-trifluoromethoxy-phenyl)-1H-imidazol-4-ylethynyl]-pyridine]	14 nM
Cc1c(C#Cc2ccnc(Cl)c2)nn(C)c1-c1ccc(F)cc1 [compound 26, 2-Chloro-4-[5-(4-fluoro-phenyl)-1,4-dimethyl-1H-pyrazol-3-ylethynyl]-pyridine]	5.9 nM
Cc1nc(C#Cc2ccnc(Cl)c2)c(C)n1-c1cccc(C(F)(F)F)n1 [compound 24, 2-[4-(2-Chloro-pyridin-4-ylethynyl)-2,5-dimethyl-1H-imidazol-1-yl]-6-(trifluoromethyl)-pyridine]	26 nM
Cc1cccc(-n2c(C)nc(C#Cc3ccnc(Cl)c3)c2C)n1 [compound 23, 2-[4-(2-Chloro-pyridin-4-ylethynyl)-2,5-dimethyl-1H-imidazol-1-yl]-6-methyl-pyridine]	93 nM
COc1ccc(-n2c(C)nc(C#Cc3ccnc(Cl)c3)c2C)cc1 [compound 10, 2-Chloro-4-[1-(4-methoxy-phenyl)-2,5-dimethyl-1H-imidazol-4-ylethynyl]-pyridine]	30 nM
Cc1cc(-n2c(C)nc(C#Cc3ccnc(Cl)c3)c2C)ccc1F [compound 6, 2-Chloro-4-[1-(4-fluoro-3-methyl-phenyl)-2,5-dimethyl-1H-imidazol-4-ylethynyl]-pyridine]	35 nM
Cc1nc(C#Cc2ccnc(Cl)c2)c(C)n1-c1cccc(Cl)c1F [compound 20, 2-Chloro-4-[1-(3-chloro-2-fluoro-phenyl)-2,5-dimethyl-1H-imidazol-4-ylethynyl]-pyridine]	28 nM
Cc1nc(C#Cc2ccnc(Cl)c2)c(C)n1-c1ccc(C(F)(F)F)cc1 [compound 13, 2-Chloro-4-[2,5-dimethyl-1-(4-trifluoromethyl-phenyl)-1H-imidazol-4-ylethynyl]-pyridine]	44 nM
Cc1cc(-n2c(C)nc(C#Cc3ccnc(Cl)c3)c2C)ccc1OC(F)(F)F [compound 14, 2-Chloro-4-[2,5-dimethyl-1-(3-methyl-4-trifluoromethoxy-phenyl)-1H-imidazol-4-ylethynyl]-pyridine]	5 nM
Cc1nc(C#Cc2ccnc(Cl)c2)c(C)n1-c1ccc(F)c(Cl)c1 [compound 22, 2-Chloro-4-[1-(3-chloro-4-fluoro-phenyl)-2,5-dimethyl-1H-imidazol-4-ylethynyl]-pyridine]	31 nM
Cc1nc(C#Cc2ccnc(Cl)c2)c(C)n1-c1ccc(Cl)cc1 [compound 19, 2-Chloro-4-[1-(4-chloro-phenyl)-2,5-dimethyl-1H-imidazol-4-ylethynyl]-pyridine]	20 nM
